Source: patent publication US4556735A, “Spergualin-related compounds having a phenylene group as well as a process for producing the same” (Zaidan Hojin Biseibutsu Kagaku Kenkyukai, priority 1984, dated 1985)
Where a name gives a salt, the structure may show the parent alone.

Assays:
[1] = Stability of the compounds in aqueous solution (percent residue by high pressure liquid chromatography); format: physicochemical; conditions: 0.5 (w/w) % in water, 40°±1° C.
Description: Each of the compounds of the present invention was dissolved in water to give a concentration of 0.5 (w/w) %. The aqueous solution was held at 40°±1° C. and samples were taken at given intervals. They were subjected to high pressure liquid chromatography and the percent residue was calculated for each sample by measuring the peak area ratio.
The percent residue for the compounds of the present invention after the lapse of a given period is shown in Table 2, with the value for the start of the experiment being taken as 100%.

[2] = system: mouse leukemia L1210 cells; assay: Inhibition of in vitro growth of mouse leukemia L1210 cells; format: cell-based; conditions: 48 hours at 37° C., 5% CO2
Description: Leukemia L1210 cells (1×10^5 /0.2 ml) were transplanted in the intraperitoneal cavity of DBA/2 strain female mice. Four days later, a sample of the abdominal ascites was taken and centrifuged to obtain L1210 cells. These cells were suspended in an RPMI 1640 medium supplemented with fetal bovine serum and 2-mercaptoethanol to have a final concentration of 5×10^4 cells/0.9 ml.
Each of the compounds of the present invention was dissolved in the medium shown above.
A portion (0.9 ml) of the L1210 cell suspension was mixed with 0.1 ml of the test solution ranging from 0.62 to 1000 μg/ml, and the mixture was incubated in a 5% CO2 atmosphere for 48 hours at 37° C. The cell count was determined both before and after the incubation, and the concentration to inhibit the growth of L1210 cells by 50% of the control (IC50) was determined.

mouse leukemia L1210 [3] = assay: Life extending effect against mouse leukemia L1210; format: in vivo; conditions: 9 consecutive days, >125 considered effective
Description: Leukemia cells L1210 (1×10^5 cells/0.2 ml) were inoculated in the intraperitoneal cavity of CDF1 -SLC female mice (6 mice per group). Two compounds of the present invention were each diluted with physiological saline in various concentrations, and starting on the day following the transplantation, each dilution was administered to the mice for 9 consecutive days in a volume of 0.1 ml 10 g (body weight).
30 Days after the inoculation, the mean survival time (day) for each treated group was calculated, and divided by the mean survival time of the control group, and multiplied by 100 to obtain the percent life prolongation (T/C). T/C values greater than 125 are considered to be effective.

rats = assay: Toxicity in rats (decrease rate of body weight); format: in vivo, rat; conditions: intraperitoneal, once a day for 10 days, 6.25 mg/ml in 0.2 ml/100 g
Description: The compound No. 1 was dissolved in physiological saline (the concentration of the compound No. 1: 6.25 mg/ml). The obtained solution was administered intraperitoneally to rats once a day for 10 consecutive days in a volume of 0.2 ml/100 g (body weight).
Decrease rate of body weight of rats was determined as follows: [formula]

[4] = prior art statement; cited from earlier work
mouse leukemia L1210 [5] = conditions: cited from earlier work
Sarcoma 180 = conditions: cited from earlier work
leukemia EL-4 = conditions: cited from earlier work
[6] = system: Gram-positive microorganisms; conditions: cited from earlier work
Ehrlich carcinoma = conditions: cited from earlier work

SMILES	Percent residue in aqueous solution ([1]; Time 0 (taken as 100%)) [%]	Percent residue in aqueous solution ([1]; Time 12 (time unit not given)) [%]	Percent residue in aqueous solution ([1]; Time 24 (time unit not given)) [%]	Percent residue in aqueous solution ([1]; Time 48 (time unit not given)) [%]	Percent residue in aqueous solution ([1]; Time 72 (time unit not given)) [%]	Percent residue in aqueous solution ([1]; Time 120 (time unit not given)) [%]	Percent residue in aqueous solution ([1]; Time 168 (time unit not given)) [%]	IC50 [2] [µg/mL]	other results
N=C(N)NCc1cccc(CCC(=O)N[C@@H](CO)C(=O)NCCCCNCCCN)c1 [Compound 5, 10-{N-[3-(3-GMP)Propanoyl]-L-seryl}-1,5,10-TAD trihydrochloride]	100	99.9	99.6	99.6	99.9	99.6	99.8		
N=C(N)NCCCc1ccc(C(=O)N[C@@H](CO)C(=O)NCCCCNCCCN)cc1 [Compound 4, 10-{N-[4-(3-GPro)Benzoyl]-L-seryl}-1,5,10-TAD trihydrochloride]	100	99.6	99.9	99.6	99.7	99.9	99.5	1.1	
N=C(N)NCCCc1ccc(C(=O)NCC(=O)NCCCCNCCCN)cc1 [Compound 7, 10-{N-[4-(3-GPro)Benzoyl]glycyl}-1,5,10-TAD trihydrochloride]	100	99.6	99.6	100	100	99.9	99.7	0.92	
N=C(N)NCc1ccc(CCC(=O)N[C@@H](CO)C(=O)NCCCCNCCCN)c(Cl)c1 [Compound 9, 10-{N-[3-(2-Chloro-4-GMP)propanoyl]-L-seryl}-1,5,10-TAD trihydrochloride]	100	99.8	99.8	99.7	100	99.5	99.6		
N=C(N)Nc1ccc(CCCC(=O)NCC(=O)NCCCCNCCCN)cc1 [Compound 2, 10-{N-[4-(4-GP)Butanoyl]glycyl}-1,5,10-TAD trihydrochloride]	100	99.7	99.9	99.8	99.9	100	99.8		T/C (percent life prolongation) (mouse leukemia L1210 [3]; 0.39 mg/kg/day): 109%; T/C (percent life prolongation) (mouse leukemia L1210 [3]; 0.78 mg/kg/day): 145%; T/C (percent life prolongation) (mouse leukemia L1210 [3]; 1.56 mg/kg/day): 435%; T/C (percent life prolongation) (mouse leukemia L1210 [3]; 3.13 mg/kg/day): 435%; T/C (percent life prolongation) (mouse leukemia L1210 [3]; 6.25 mg/kg/day): 435%; T/C (percent life prolongation) (mouse leukemia L1210 [3]; 12.50 mg/kg/day): 435%; T/C (percent life prolongation) (mouse leukemia L1210 [3]; 25.00 mg/kg/day): 435%; T/C (percent life prolongation) (mouse leukemia L1210 [3]; 50.00 mg/kg/day): 15%
N=C(N)Nc1ccc(CCCC(=O)N[C@@H](CO)C(=O)NCCCCNCCCN)cc1 [Compound 1, 10-{N-[4-(4-GP)Butanoyl]-L-seryl}-1,5,10-TAD trihydrochloride]	100	99.8	99.6	99.8	99.5	99.6	99.5		T/C (percent life prolongation) (mouse leukemia L1210 [3]; 0.39 mg/kg/day): 149%; T/C (percent life prolongation) (mouse leukemia L1210 [3]; 0.78 mg/kg/day): 406%; T/C (percent life prolongation) (mouse leukemia L1210 [3]; 1.56 mg/kg/day): 435%; T/C (percent life prolongation) (mouse leukemia L1210 [3]; 3.13 mg/kg/day): 435%; T/C (percent life prolongation) (mouse leukemia L1210 [3]; 6.25 mg/kg/day): 435%; T/C (percent life prolongation) (mouse leukemia L1210 [3]; 12.50 mg/kg/day): 420%; T/C (percent life prolongation) (mouse leukemia L1210 [3]; 25.00 mg/kg/day): 178%; Decrease rate of body weight of rats (rats): very small; toxicity (rats; rats): a little
N=C(N)NCCCCC(O)CC(=O)NC(O)C(=O)NCCCCNCCCN (stereo not drawn) [Spergualin]	100								stability in an aqueous solution [4]: unstable; antineoplastic effects (mouse leukemia L1210 [5]): significant antineoplastic effects; antineoplastic effects (Sarcoma 180): significant antineoplastic effects; antineoplastic effects (leukemia EL-4): significant antineoplastic effects; inhibit the growth of Gram-positive microorganisms [6]: ability to inhibit the growth; antineoplastic effects (Ehrlich carcinoma): significant antineoplastic effects

The next lines start with results.

Percent residue in aqueous solution ([1]; Time 0 (taken as 100%)) [%]	Percent residue in aqueous solution ([1]; Time 12 (time unit not given)) [%]	Percent residue in aqueous solution ([1]; Time 24 (time unit not given)) [%]	Percent residue in aqueous solution ([1]; Time 48 (time unit not given)) [%]	Percent residue in aqueous solution ([1]; Time 72 (time unit not given)) [%]	Percent residue in aqueous solution ([1]; Time 120 (time unit not given)) [%]	Percent residue in aqueous solution ([1]; Time 168 (time unit not given)) [%]	IC50 [2] [µg/mL]	SMILES	other results
100	99.5	99.8	99.7	99.7	99.5	100		N=C(N)Nc1ccc(CCCCC(=O)N[C@@H](CO)C(=O)NCCCCNCCCN)cc1 [Compound 6, 10-{N-[5-(4-GP)Pentanoyl]-L-seryl}-1,5,10-TAD trihydrochloride]	
100	99.7	99.9	99.5	99.8	99.7	99.8	0.97	N=C(N)NCc1ccccc1CCCCC(=O)N[C@@H](CO)C(=O)NCCCCNCCCN [Compound 8, 10-{N-[5-(2-GMP)Pentanoyl]-L-ceryl}-1,5,10-TAD trihydrochloride]	
100	99.6	99.5	99.8	99.6	99.6	99.8		N=C(N)NCc1ccc(CCC(=O)N[C@@H](CO)C(=O)NCCCCNCCCN)cc1 [Compound 3, 10-{N-[3-(4-GMP)Propanoyl]-L-seryl}-1,5,10-TAD trihydrochloride]	
